Tests used:
[1] = test system: (Pro-Hyp-Gly)10; test: DSC of triple-helical peptide in presence of Phe; conditions: PBS pH 7, peptide c=1mg/ml, molar ratio peptide:Phe = 1:200
[2] = test system: FT4Y; test: Effect of isolated Phe on self-association by turbidity; conditions: FT4Y c=3mg/ml, 46°C, data not shown
[3] = test system: T4Y; test: as above; conditions: T4Y c=7mg/ml, 44°C, PBS, 1peptide:60F
[4] = target: T4, type IV collagen model peptide (POG)3QOGLOGLOG(POG)4; test: critical concentration
[5] = target: T4, type IV collagen model peptide (POG)3QOGLOGLOG(POG)4; test: dynamic light scattering

Compound | effect on thermal stability of (Pro-Hyp-Gly)10 by DSC [1] | effect on self-association of FT4Y [2] | effect on self-association of T4Y [3] | critical concentration [4] [mg/mL] | stoichiometry N [5]
N[C@@H](Cc1ccccc1)C(=O)O [Phe, L-phenylalanine] | slight destabilization | substantial delay in self-association | substantial delay in self-association | – | –
T4, type IV collagen model peptide (POG)3QOGLOGLOG(POG)4 | – | – | – | 5.9 | 3

— PMC2784932 (Biochemistry, 2009)
